Results published in ChEMBL document CHEMBL4800722, “Data for DCP probe BI 605906” (2021).

Key:
[1] = target: Tyrosine-protein kinase receptor TYRO3 (Homo sapiens) (UniProt Q06418); details: Compound concentration 1.0 uM
[2] = target: Tyrosine-protein kinase Fgr (Homo sapiens) (UniProt P09769); assay: FGR Invitrogen Lab (UK) kinase screen (BI); details: Compound concentration 1.0 uM
[3] = target: Megakaryocyte-associated tyrosine-protein kinase (Homo sapiens) (UniProt P42679); details: Compound concentration 1.0 uM
[4] = target: Proto-oncogene tyrosine-protein kinase Src (Homo sapiens) (UniProt P12931)
[5] = target: cAMP-dependent protein kinase catalytic subunit PRKX (Homo sapiens) (UniProt P51817); details: Compound concentration 1.0 uM
[6] = target: Myosin light chain kinase, smooth muscle (Homo sapiens) (UniProt Q15746); details: Compound concentration 1.0 uM
[7] = target: Ribosomal protein S6 kinase beta-2 (Homo sapiens) (UniProt Q9UBS0); assay: RPS6KB2 (P70S6KB) Invitrogen Lab (UK) kinase screen (BI); details: Compound concentration 1.0 uM
[8] = target: Dual specificity tyrosine-phosphorylation-regulated kinase 2 (Homo sapiens) (UniProt Q92630); assay: DYRK2 Invitrogen Lab (UK) kinase screen (BI); details: Compound concentration 1.0 uM
[9] = target: Dual specificity mitogen-activated protein kinase kinase 6 (Homo sapiens) (UniProt P52564); assay: MAP2K6 Invitrogen Lab (UK) kinase screen (BI); details: Compound concentration 1.0 uM
[10] = target: Acetylcholinesterase (Homo sapiens) (UniProt P22303); details: Compound concentration 10.0 uM
[11] = target: Receptor tyrosine-protein kinase erbB-4 (Homo sapiens) (UniProt Q15303); details: Compound concentration 1.0 uM
[12] = target: Serine/threonine-protein kinase B-raf (Homo sapiens) (UniProt P15056); assay: BRAF Invitrogen Lab (UK) kinase screen (BI); details: Compound concentration 1.0 uM
[13] = target: 5-hydroxytryptamine receptor 2A (Homo sapiens) (UniProt P28223); details: Compound concentration 10.0 uM
[14] = target: Cyclin-dependent kinase 2/cyclin A (Homo sapiens) (UniProt P24941+P20248+P78396); details: Compound concentration 1.0 uM
[15] = target: Lymphokine-activated killer T-cell-originated protein kinase (Homo sapiens) (UniProt Q96KB5); details: Compound concentration 10.0 uM
[16] = target: Proto-oncogene tyrosine-protein kinase ROS (Homo sapiens) (UniProt P08922); details: Compound concentration 1.0 uM
[17] = target: Casein kinase I isoform gamma-1 (Homo sapiens) (UniProt Q9HCP0); assay: CSNK1G1 Invitrogen Lab (UK) kinase screen (BI); details: Compound concentration 1.0 uM
[18] = target: Serine/threonine-protein kinase D3 (Homo sapiens) (UniProt O94806); details: Compound concentration 1.0 uM
[19] = target: Cyclin-dependent kinase 5/CDK5 activator 1 (Homo sapiens) (UniProt Q00535+Q15078); details: Compound concentration 1.0 uM
[20] = target: Dual specificity protein kinase CLK3 (Homo sapiens) (UniProt P49761); assay: CLK3 Invitrogen Lab (UK) kinase screen (BI); details: Compound concentration 1.0 uM
[21] = target: Dual specificity protein kinase CLK2 (Homo sapiens) (UniProt P49760); details: Compound concentration 1.0 uM
[22] = target: Alpha-1A adrenergic receptor (Homo sapiens) (UniProt P35348); details: Compound concentration 10.0 uM
[23] = target: MAP/microtubule affinity-regulating kinase 4 (Homo sapiens) (UniProt Q96L34); details: Compound concentration 1.0 uM
[24] = target: CDK6/cyclin D1 (Homo sapiens) (UniProt P24385+Q00534); details: Compound concentration 1.0 uM
[25] = target: High affinity nerve growth factor receptor (Homo sapiens) (UniProt P04629); assay: NTRK1 Invitrogen Lab (UK) kinase screen (BI)
[26] = target: Prostaglandin G/H synthase 1 (Homo sapiens) (UniProt P23219); details: Compound concentration 10.0 uM
[27] = target: Phosphatidylinositol 3-kinase catalytic subunit type 3 (Homo sapiens) (UniProt Q8NEB9); details: Compound concentration 1.0 uM
[28] = target: Fibroblast growth factor receptor 3 (Homo sapiens) (UniProt P22607); details: Compound concentration 1.0 uM
[29] = target: Inhibitor of nuclear factor kappa-B kinase subunit alpha (Homo sapiens) (UniProt O15111); assay: CHUK_IKKA Invitrogen Lab (UK) kinase screen (BI)
[30] = target: Serine/threonine-protein kinase MRCK gamma (Homo sapiens) (UniProt Q6DT37); assay: CDC42 BPG (MRCKG) Invitrogen Lab (UK) kinase screen (BI); details: Compound concentration 1.0 uM
[31] = target: AMP-activated protein kinase alpha-1/beta-2/gamma-3 (Homo sapiens) (UniProt O43741+Q13131+Q9UGI9); details: Compound concentration 1.0 uM
[32] = target: Bone morphogenetic protein receptor type-1A (Homo sapiens) (UniProt P36894); details: Compound concentration 1.0 uM
[33] = target: Homeodomain-interacting protein kinase 1 (Homo sapiens) (UniProt Q86Z02); details: Compound concentration 1.0 uM
[34] = target: Protein kinase C alpha type (Homo sapiens) (UniProt P17252); assay: PRKCA Invitrogen Lab (UK) kinase screen (BI); details: Compound concentration 1.0 uM
[35] = target: cGMP-dependent protein kinase 1 (Homo sapiens) (UniProt Q13976); details: Compound concentration 1.0 uM
[36] = target: Rho-associated protein kinase 1 (Homo sapiens) (UniProt Q13464); assay: ROCK1 Invitrogen Lab (UK) kinase screen (BI)
[37] = target: MAP kinase-interacting serine/threonine-protein kinase 1 (Homo sapiens) (UniProt Q9BUB5); assay: MKNK1 Invitrogen Lab (UK) kinase screen (BI); details: Compound concentration 1.0 uM
[38] = target: Mast/stem cell growth factor receptor Kit (Homo sapiens) (UniProt P10721)
[39] = target: Cytoplasmic tyrosine-protein kinase BMX (Homo sapiens) (UniProt P51813); assay: BMX Invitrogen Lab (UK) kinase screen (BI); details: Compound concentration 1.0 uM
[40] = target: Mitogen-activated protein kinase kinase kinase 21 (Homo sapiens) (UniProt Q5TCX8); details: Compound concentration 1.0 uM
[41] = target: SRSF protein kinase 2 (Homo sapiens) (UniProt P78362); assay: SRPK2 Invitrogen Lab (UK) kinase screen (BI); details: Compound concentration 1.0 uM
[42] = target: Cathepsin G (Homo sapiens) (UniProt P08311); assay: PEPCATHEPSG Eurofins SafetyScreen44 (BI); details: Compound concentration 10.0 uM
Sequence of Cathepsin G (Homo sapiens) (P08311 whole entry): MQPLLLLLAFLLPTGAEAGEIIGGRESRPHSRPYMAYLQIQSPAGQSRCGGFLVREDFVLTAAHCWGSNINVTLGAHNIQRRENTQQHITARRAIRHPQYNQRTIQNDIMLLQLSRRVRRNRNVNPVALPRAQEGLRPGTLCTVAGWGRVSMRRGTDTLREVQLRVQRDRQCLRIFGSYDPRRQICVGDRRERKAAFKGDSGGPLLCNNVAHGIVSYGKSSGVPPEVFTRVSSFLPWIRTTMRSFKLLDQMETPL

Sequence of Inhibitor of nuclear factor kappa-B kinase subunit alpha (Homo sapiens) (O15111 whole entry): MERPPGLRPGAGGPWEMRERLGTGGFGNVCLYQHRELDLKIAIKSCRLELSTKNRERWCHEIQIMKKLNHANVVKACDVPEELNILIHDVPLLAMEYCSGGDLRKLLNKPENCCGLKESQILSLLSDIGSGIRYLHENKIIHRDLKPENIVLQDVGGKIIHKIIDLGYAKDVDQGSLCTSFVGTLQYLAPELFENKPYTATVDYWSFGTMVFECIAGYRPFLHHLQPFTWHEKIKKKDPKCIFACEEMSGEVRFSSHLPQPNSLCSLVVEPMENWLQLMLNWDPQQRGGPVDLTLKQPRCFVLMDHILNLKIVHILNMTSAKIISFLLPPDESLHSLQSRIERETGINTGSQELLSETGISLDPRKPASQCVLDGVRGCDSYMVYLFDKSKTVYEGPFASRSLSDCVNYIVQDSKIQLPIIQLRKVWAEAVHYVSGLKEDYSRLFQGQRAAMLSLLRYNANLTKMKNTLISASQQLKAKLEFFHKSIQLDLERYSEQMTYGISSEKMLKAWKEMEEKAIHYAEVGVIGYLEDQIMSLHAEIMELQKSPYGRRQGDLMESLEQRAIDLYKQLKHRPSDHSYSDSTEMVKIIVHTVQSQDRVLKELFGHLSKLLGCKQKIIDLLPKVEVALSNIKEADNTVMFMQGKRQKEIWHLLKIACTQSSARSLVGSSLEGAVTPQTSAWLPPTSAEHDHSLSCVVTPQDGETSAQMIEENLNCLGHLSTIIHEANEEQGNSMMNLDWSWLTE
Sequence of High affinity nerve growth factor receptor (Homo sapiens) (P04629 33-796 limits assumed): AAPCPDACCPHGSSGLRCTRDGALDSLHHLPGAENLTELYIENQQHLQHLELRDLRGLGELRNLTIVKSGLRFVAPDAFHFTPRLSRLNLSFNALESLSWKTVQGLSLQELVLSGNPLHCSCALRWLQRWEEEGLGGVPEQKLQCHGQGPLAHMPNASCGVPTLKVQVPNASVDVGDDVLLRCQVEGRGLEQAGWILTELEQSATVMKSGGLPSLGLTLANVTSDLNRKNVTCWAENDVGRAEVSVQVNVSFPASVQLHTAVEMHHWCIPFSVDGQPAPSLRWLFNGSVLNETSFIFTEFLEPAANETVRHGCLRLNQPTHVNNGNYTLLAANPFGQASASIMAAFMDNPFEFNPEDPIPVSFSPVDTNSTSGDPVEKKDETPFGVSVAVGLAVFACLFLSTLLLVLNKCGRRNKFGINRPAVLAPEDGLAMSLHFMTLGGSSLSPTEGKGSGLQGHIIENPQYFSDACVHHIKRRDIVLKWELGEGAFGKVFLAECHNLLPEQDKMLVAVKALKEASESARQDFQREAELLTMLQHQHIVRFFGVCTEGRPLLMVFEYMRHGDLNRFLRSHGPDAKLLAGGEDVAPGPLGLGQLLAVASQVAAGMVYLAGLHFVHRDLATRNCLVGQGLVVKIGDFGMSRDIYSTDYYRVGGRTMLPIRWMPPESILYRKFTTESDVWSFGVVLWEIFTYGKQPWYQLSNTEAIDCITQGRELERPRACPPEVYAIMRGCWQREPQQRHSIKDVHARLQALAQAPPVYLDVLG
Sequence of Rho-associated protein kinase 1 (Homo sapiens) (Q13464 2-1354 limits assumed): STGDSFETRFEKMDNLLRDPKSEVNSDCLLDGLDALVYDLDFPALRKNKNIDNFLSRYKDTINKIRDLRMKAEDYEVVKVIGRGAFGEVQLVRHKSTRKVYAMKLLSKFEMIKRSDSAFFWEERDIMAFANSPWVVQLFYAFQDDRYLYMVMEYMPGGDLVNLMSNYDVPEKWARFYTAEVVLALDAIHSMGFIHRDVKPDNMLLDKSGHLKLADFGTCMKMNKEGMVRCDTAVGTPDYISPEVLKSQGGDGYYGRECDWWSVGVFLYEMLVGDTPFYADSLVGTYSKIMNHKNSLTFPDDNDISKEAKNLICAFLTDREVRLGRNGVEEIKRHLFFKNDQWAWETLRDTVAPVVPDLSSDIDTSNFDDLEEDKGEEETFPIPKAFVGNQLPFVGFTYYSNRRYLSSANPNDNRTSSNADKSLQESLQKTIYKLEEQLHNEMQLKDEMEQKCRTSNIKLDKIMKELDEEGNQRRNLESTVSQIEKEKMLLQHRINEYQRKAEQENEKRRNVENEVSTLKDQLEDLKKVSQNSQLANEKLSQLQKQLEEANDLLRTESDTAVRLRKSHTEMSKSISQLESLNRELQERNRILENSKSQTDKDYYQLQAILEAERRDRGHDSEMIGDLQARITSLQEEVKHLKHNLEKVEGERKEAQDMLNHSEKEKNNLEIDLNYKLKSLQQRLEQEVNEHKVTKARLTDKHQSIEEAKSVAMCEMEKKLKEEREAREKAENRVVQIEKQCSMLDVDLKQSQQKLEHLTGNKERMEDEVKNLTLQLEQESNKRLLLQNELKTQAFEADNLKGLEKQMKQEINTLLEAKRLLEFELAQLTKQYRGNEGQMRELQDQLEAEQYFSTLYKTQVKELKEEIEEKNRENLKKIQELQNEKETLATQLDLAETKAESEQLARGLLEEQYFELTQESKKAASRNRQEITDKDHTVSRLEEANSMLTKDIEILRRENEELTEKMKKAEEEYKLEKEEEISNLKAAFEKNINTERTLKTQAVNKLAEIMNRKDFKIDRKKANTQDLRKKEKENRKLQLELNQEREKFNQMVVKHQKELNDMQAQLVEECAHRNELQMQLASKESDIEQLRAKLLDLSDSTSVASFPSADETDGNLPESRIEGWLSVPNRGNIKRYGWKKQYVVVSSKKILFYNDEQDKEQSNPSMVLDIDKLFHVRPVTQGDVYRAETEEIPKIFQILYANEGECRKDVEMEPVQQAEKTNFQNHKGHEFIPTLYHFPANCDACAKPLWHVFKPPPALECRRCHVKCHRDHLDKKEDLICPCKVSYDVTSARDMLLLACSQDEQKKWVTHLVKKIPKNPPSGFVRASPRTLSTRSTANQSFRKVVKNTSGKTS
Sequence of Mast/stem cell growth factor receptor Kit (Homo sapiens) (P10721 whole entry): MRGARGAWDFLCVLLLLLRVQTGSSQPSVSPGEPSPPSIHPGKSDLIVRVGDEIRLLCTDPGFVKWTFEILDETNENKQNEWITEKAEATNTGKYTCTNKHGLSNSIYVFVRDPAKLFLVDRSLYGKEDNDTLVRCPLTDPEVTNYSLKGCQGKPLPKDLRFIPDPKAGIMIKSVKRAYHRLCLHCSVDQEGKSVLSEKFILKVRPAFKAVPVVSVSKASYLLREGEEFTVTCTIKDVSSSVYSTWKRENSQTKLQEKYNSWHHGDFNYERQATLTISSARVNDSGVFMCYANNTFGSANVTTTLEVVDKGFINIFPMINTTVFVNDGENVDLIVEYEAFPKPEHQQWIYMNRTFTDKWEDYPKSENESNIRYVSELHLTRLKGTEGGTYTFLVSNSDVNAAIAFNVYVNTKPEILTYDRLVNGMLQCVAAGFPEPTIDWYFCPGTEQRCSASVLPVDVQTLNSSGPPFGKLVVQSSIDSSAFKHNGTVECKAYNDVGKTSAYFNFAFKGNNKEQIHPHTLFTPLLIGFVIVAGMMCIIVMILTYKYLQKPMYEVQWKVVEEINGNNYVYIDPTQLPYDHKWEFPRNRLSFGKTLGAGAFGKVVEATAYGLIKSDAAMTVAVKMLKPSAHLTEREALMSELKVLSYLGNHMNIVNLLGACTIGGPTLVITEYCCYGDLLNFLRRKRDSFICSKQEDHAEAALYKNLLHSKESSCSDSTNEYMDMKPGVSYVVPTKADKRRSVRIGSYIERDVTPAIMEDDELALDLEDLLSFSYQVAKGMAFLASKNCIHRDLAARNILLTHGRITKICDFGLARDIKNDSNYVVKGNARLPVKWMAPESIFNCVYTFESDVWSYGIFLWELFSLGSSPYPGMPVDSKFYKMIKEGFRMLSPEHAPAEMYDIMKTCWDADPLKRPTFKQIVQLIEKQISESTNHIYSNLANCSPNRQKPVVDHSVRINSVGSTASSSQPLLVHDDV
Sequence of Proto-oncogene tyrosine-protein kinase Src (Homo sapiens) (P12931 2-536 limits assumed): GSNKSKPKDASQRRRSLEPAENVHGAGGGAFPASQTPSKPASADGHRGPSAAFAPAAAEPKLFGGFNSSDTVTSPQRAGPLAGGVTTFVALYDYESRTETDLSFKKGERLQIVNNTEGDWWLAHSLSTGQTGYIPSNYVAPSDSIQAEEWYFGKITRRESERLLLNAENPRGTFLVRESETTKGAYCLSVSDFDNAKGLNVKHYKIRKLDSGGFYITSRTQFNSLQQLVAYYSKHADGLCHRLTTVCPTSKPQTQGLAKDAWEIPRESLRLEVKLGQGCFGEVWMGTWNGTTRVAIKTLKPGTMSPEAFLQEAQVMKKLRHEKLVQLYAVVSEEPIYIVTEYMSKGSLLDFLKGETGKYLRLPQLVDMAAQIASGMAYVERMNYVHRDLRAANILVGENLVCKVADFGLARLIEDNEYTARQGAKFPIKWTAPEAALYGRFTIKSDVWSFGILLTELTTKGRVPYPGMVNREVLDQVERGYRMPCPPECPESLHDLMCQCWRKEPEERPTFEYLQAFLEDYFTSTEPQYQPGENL
Sequence of Dual specificity mitogen-activated protein kinase kinase 6 (Homo sapiens) (P52564 whole entry): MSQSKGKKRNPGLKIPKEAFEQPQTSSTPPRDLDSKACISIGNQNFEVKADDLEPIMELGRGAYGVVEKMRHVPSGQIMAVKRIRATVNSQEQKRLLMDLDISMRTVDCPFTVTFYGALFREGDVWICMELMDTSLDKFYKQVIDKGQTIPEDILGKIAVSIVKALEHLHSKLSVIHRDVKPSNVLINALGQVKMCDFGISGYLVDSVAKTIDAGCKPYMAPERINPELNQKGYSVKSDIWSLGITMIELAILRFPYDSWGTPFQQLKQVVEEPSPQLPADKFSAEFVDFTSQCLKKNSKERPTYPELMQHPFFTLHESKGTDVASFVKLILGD

In the case of `CCC(F)(F)c1cc(N2CCC(S(C)(=O)=O)CC2)nc2sc(C(N)=O)c(N)c12` [BI-605906], the residual activity [1] is reported as 94%, the residual activity [2] is reported as 78% and the residual activity [3] is reported as 101%. For the same compound, the residual activity ([4]; Compound concentration 1.0 uM) was 79%, the residual activity ([4]; Compound concentration 10.0 uM) was 92% and the residual activity [5] was 96%. For the same compound, the residual activity [6] was 91%, the residual activity [7] was 86% and the residual activity [8] was 62%. The residual activity [9] was 75%, the residual activity [10] was 87% and the residual activity [11] was 94%. It also gave a residual activity [12] of 72%, an inhibition [13] of 6.1% and a residual activity [14] of 90%. It also gave a residual activity [15] of 100%, a residual activity [16] of 94% and a residual activity [17] of 102%. It also gave a residual activity [18] of 91%, a residual activity [19] of 99% and a residual activity [20] of 102%. It also gave a residual activity [21] of 91%, an inhibition [22] of 18.9% and a residual activity [23] of 100%. For the same compound, the residual activity [24] was 100%, the residual activity ([25]; Compound concentration 1.0 uM) was 81% and the residual activity ([25]; Compound concentration 10.0 uM) was 83%. The residual activity [26] was 105%, the residual activity [27] was 91% and the residual activity [28] was 96%. It also gave a residual activity ([29]; Compound concentration 1.0 uM) of 67%, a residual activity ([29]; Compound concentration 10.0 uM) of 27% and a residual activity [30] of 111%. For the same compound, the residual activity [31] was 91%, the residual activity [32] was 100% and the residual activity [33] was 101%. It also gave a residual activity [34] of 85%, a residual activity [35] of 97% and a residual activity ([36]; Compound concentration 1.0 uM) of 88%. It also gave a residual activity ([36]; Compound concentration 10.0 uM) of 47%, a residual activity [37] of 107% and a residual activity ([38]; Compound concentration 1.0 uM) of 89%. For the same compound, the residual activity ([38]; Compound concentration 10.0 uM) was 83%, the residual activity [39] was 88% and the residual activity [40] was 97%. The residual activity [41] was 103% and the residual activity [42] was 106%.
